Source: the NIST ThermoML archive (doi:10.1021/acs.jced.5b00980)

Details: for mass density: 101.33 kPa, Liquid, Vibrating tube method

CCCC[P+](CC)(CCCC)CCCC.CCOP(=O)([O-])OCC [tributylethylphosphonium diethylphosphate]
Details	mass density [kg/m3]
298.15 K	996.1
303.15 K	992.58
308.15 K	989.06
313.15 K	985.55
318.15 K	982.04
323.15 K	978.53
328.15 K	975.03
333.15 K	971.53
338.15 K	968.03
343.15 K	964.53
348.15 K	961.01
353.15 K	957.5
358.15 K	954
363.15 K	950.49
368.15 K	946.98

Details	Glass transition temperature [°C]
Glass, DSC	-71.34
